Here are results for 30 compounds from patent publication EP1680415B1, “PYRROLIDINYL UREA DERIVATIVES AS ANGIOGENESIS INHIBITORS” (ABBOTT LABORATORIES, priority 2003, dated 2005).

One test relates to HMVEC. The experiment in a line: human microvascular endothelial (HMVEC) migration assay. The class given is cell-based. As to conditions: Homo sapiens; Inhibition of HMVEC migration; 0.01 nM; activators 15 ng/mL bFGF/VEGF; 4 hours at 37 °C; compared to a positive control. As to the method: The human microvascular endothelial (HMVEC) migration assay was run according to the procedure of S. S. Tolsma, O. V. Volpert, D. J. Good, W. F. Frazier, P. J. Polverini and N. Bouck, J. Cell Biol. 122, 497-511 (1993).
The HMVEC migration assay was carried out using Human Microvascular Endothelial Cells-Dermal (single donor) and Human Microvascular Endothelial Cells, (neonatal). The BCE or HMVEC cells were starved overnight in DME containing 0.01% bovine serum albumin (BSA). Cells were then harvested with trypsin and resuspended in DME with 0.01 % BSA at a concentration of 1.5 X 10^6 cells per mL. Cells were added to the bottom of a 48 well modified Boyden chamber (Nucleopore Corporation, Cabin John, MD). The chamber was assembled and inverted, and cells were allowed to attach for 2 hours at 37 °C to polycarbonate chemotaxis membranes (5 µm pore size) that had been soaked in 0.01 % gelatin overnight and dried. The chamber was then reinverted, and test substances (total volume of 50 µL), including activators, 15 ng/mL bFGF/VEGF, were added to the wells of the upper chamber. The apparatus was incubated for 4 hours at 37 °C. Membranes were recovered, fixed and stained (Diff Quick, Fisher Scientific) and the number of cells that had migrated to the upper chamber per 3 high power fields counted. Background migration to DME + […] was subtracted and the data reported as the number of cells migrated per 10 high power fields (400X) or, when results from multiple experiments were combined, as the percent inhibition of migration compared to a positive control.
Usually inhibition stands for the share of the control response that was lost under treatment. A high value points to a strong effect. Consider `Cc1ccc(C(=O)N2CC[C@@H](NC(=O)N3CC(C)OC(C)C3)C2)cn1` (stereo partly drawn) [Example 88, 2,6-dimethyl-N-{(3R)-1-[(6-methylpyridin-3-yl)carbonyl]pyrrolidin-3-yl}morpholine-4-carboxamide], for which the inhibition at 10 pM came to 81%.

The compound `Cc1ccc(C(=O)N2CC[C@@H](NC(=O)N3CCN(c4ccccn4)CC3)C2)cn1` [Example 90, N-{(3R)-1-[(6-methylpyridin-3-yl)carbonyl]pyrrolidin-3-yl}-4-pyridin-2-ylpiperazine-1-carboxamide] returned an inhibition at 10 pM of 52%.

As for `Cc1ccc(C(=O)N2CC[C@@H](NC(=O)N3CCN(c4ccccc4F)CC3)C2)cn1` [Example 91, 4-(2-fluorophenyl)-N-{(3R)-1-[(6-methylpyridin-3-yl)carbonyl]pyrrolidin-3-yl}piperazine-1-carboxamide], the inhibition at 10 pM came out at 57%.

In the case of `Cc1ccc(C(=O)N2CC[C@@H](NC(=O)N3CCN(c4ccc(F)cc4)CC3)C2)cn1` [Example 92, 4-(4-fluorophenyl)-N-{(3R)-1-[(6-methylpyidin-3-yl)carbonyl]pyrrolidin-3-yl}piperazine-1-carboxamide], the inhibition at 10 pM stood at 67%.

For `CCOC(=O)CN1CCN(C(=O)N[C@@H]2CCN(C(=O)c3ccc(C)nc3)C2)CC1` [Example 95, ethyl {4-[({(3R)-1-[(6-methylpyridin-3-yl)carbonyl]pyrrolidin-3-yl}amino)carbonyl]piperazin-1-yl} acetate], testing at 10 pM gave an inhibition of 62%.

Turning to `COCC1CCCN(C(=O)N[C@@H]2CCN(C(=O)c3ccc(C)nc3)C2)C1` (stereo partly drawn) [Example 97, 3-(methoxymethyl)-N-{(3R)-1-[(6-methylpyridin-3-yl)carbonyl]pyrrolidin-3-yl}piperidine-1-carboxamide], at 10 pM the inhibition was 54%.

The same test, now with this note: Homo sapiens; Inhibition of HMVEC migration; 0.1 nM; activators 15 ng/mL bFGF/VEGF; 4 hours at 37 °C; compared to a positive control.
In turn, `Cc1ccc(C(=O)N2CC[C@@H](NC(=O)N(CCC#N)C3CC3)C2)cn1` [Example 67, N-(2-cyanoethyl)-N-cyclopropyl-N'-{(3R)-1-[(6-methylpyridin-3-yl)carbonyl]pyrrolidin-3-yl}urea] returned an inhibition at 0.0001 µM of 73%.

As for `CCCC1CCN(C(=O)N[C@@H]2CCN(C(=O)c3ccc(C)nc3)C2)CC1` [Example 69, N-{(3R)-1-[(6-methylpyridin-3-yl)carbonyl]pyrrolidin-3-yl} -4-propylpiperidine-1-carboxamide], 0.0001 µM produced 87% inhibition.

Compound `Cc1ccc(C(=O)N2CC[C@@H](NC(=O)N3CCCCCC3)C2)cn1` [Example 70, N-{(3R)-1-[(6-methylpyridin-3-yl)carbonyl]pyrrolidin-3-yl}azepane-1-carboxamide] had an inhibition at 0.0001 µM of 97%.

Take `CCN(CCOC)C(=O)N[C@@H]1CCN(C(=O)c2ccc(C)nc2)C1` [Example 71, N-ethyl-N-(2-methoxyethyl)-N'-{(3R)-1-[(6-methylpyridin-3-yl)carbonyl]pyrrolidin-3-yl}urea]: the inhibition at 0.0001 µM is 53%.

Compound `CCCN(CCOC)C(=O)N[C@@H]1CCN(C(=O)c2ccc(C)nc2)C1` [Example 72, N-(2-methoxyethyl)-N'-{(3R)-1-[(6-methylpyridin-3-yl)carbonyl]pyrrolidin-3-yl}-N-propylurea] yielded an inhibition at 0.0001 µM of 89%.

Take `COCCN(CCOC)C(=O)N[C@@H]1CCN(C(=O)c2ccc(C)nc2)C1` [Example 73, N,N-bis(2-methoxyethyl)-N'-{(3R)-1-[(6-methylpyridin-3-yl)carbonyl]pyrrolidin-3-yl}urea]: the inhibition at 0.0001 µM came to 71%.

`Cc1ccc(C(=O)N2CC[C@@H](NC(=O)N3CC4(C)CC3CC(C)(C)C4)C2)cn1` (stereo partly drawn) [Example 74, 1,3,3-trimethyl-N-{(3R)-1-[(6-methylpyridin-3-yl)carbonyl]pyrrolidin-3-yl}-6-azabicyclo[3.2.1]octane-6-carboxamide] came in with an inhibition at 0.0001 µM of 68%.

Regarding `CCC(C)N1CCN(C(=O)N[C@@H]2CCN(C(=O)c3ccc(C)nc3)C2)CC1` (stereo partly drawn) [Example 76, 4-sec-butyl-N-{(3R)-1-[(6-methylpyridin-3-yl)carbonyl]pyrrolidin-3-yl}piperazine-1-carboxamide], the inhibition at 0.0001 µM was found to be 58%.

The compound `CCOCCN1CCN(C(=O)N[C@@H]2CCN(C(=O)c3ccc(C)nc3)C2)CC1` [Example 77, 4-(2-ethoxyethyl)-N-{(3R)-1-[(6-methylpyridin-3-yl)carbonyl]pyrrolidin-3-yl}piperazine-1-carboxamide] yielded an inhibition at 0.0001 µM of 58%.

On to `Cc1ccc(C(=O)N2CC[C@@H](NC(=O)N3CCN(C4CCCCC4)CC3)C2)cn1` [Example 78, 4-cyclohexyl-N-{(3R)-1-[(6-methylpyridin-3-yl)carbonyl]pyrrolidin-3-yl}piperazine-1-carboxamide], for which the inhibition at 0.0001 µM is 67%.

`Cc1ccc(C(=O)N2CC[C@@H](NC(=O)N3CCN(CCc4cccs4)CC3)C2)cn1` [Example 79, N-{(3R)-1-[(6-methylpyridin-3-yl)carbonyl]pyrrolidin-3-yl}-4-(2-thien-2-ylethyl)piperazine-1-carboxamide] showed an inhibition at 0.0001 µM of 48%.

Regarding `Cc1ccc(C(=O)N2CC[C@@H](NC(=O)N3CCN(CC(=O)N4CCCCC4)CC3)C2)cn1` [Example 80, N-{(3R)-1-[(6-methylpyridin-3-yl)carbonyl]pyrrolidin-3-yl}-4-(2-oxo-2-piperidin-1-ylethyl)piperazine-1-carboxamide], the inhibition at 0.0001 µM came to 73%.

`Cc1ccc(C(=O)N2CC[C@@H](NC(=O)N3CCN(C(=O)C4CCCCC4)CC3)C2)cn1` [Example 81, 4-(cyclohexylcarbonyl)-N-{(3R)-1-[(6-methylpyridin-3-yl)carbonyl]pyrrolidin-3-yl}piperazine-1-carboxamide] returned an inhibition at 0.0001 µM of 55%.

With `Cc1ccc(C(=O)N2CC[C@@H](NC(=O)N(CCO)Cc3ccccc3)C2)cn1` [Example 82, N-benzyl-N-(2-hydroxyethyl)-N'-{(3R)-1-[(6-methylpyridin-3-yl)carbonyl]pyrrolidin-3-yl}urea], the inhibition at 0.0001 µM turned out to be 57%.

On to `Cc1ccc(C(=O)N2CCC(NC(=O)N(C)CC(O)c3ccccc3)C2)cn1` (stereo not drawn) [Example 83, N-(2-hydroxy-2-phenylethyl)-N-methyl-N'-{1-[(6-methylpyridin-3-yl)carbonyl]pyrrolidin-3-yl}urea], for which the inhibition at 0.0001 µM amounted to 80%.

`Cc1ccc(C(=O)N2CC[C@@H](NC(=O)N(C)CCc3ccccn3)C2)cn1` [Example 84, N-methyl-N'-{(3R)-1-[(6-methylpyridin-3-yl)carbonyl]pyrrolidin-3-yl}-N-(2-pyridin-2-ylethyl)urea] displayed an inhibition at 0.0001 µM of 62%.

For the compound `Cc1ccc(C(=O)N2CC[C@@H](NC(=O)N3CCC(O)CC3)C2)cn1` [Example 85, 4-hydroxy-N-{(3R)-1-[(6-methylpyridin-3-yl)carbonyl]pyrrolidin-3-yl}piperidine-1-carboxamide], at 0.0001 µM the inhibition was 55%.

For `Cc1ccc(C(=O)N2CC[C@@H](NC(=O)N3CCC(C(N)=O)CC3)C2)cn1` [Example 86, N^1-{(3R)-1-[(6-methylpyridin-3-yl)carbonyl]pyrrolidin-3-yl}piperidine-1,4-dicarboxamide], the inhibition at 0.0001 µM is 74%.

Turning to `Cc1ccc(C(=O)N2CC[C@@H](NC(=O)N3CCC4(CC3)OCCO4)C2)cn1` [Example 87, N-{(3R)-1-[(6-methylpyridin-3-yl)carbonyl]pyrrolidin-3-yl}-1,4-dioxa-8-azaspiro[4.5]decane-8-carboxamide], 0.0001 µM produced 55% inhibition.

`Cc1ccc(C(=O)N2CC[C@@H](NC(=O)N3CCN(c4ccccc4)CC3)C2)cn1` [Example 89, N-{(3R)-1-[(6-methylpyridin-3-yl)carbonyl]pyrrolidin-3-yl}-4-phenylpiperazine-1-carboxamide] had an inhibition at 0.0001 µM of 62%.

With `COc1ccccc1N1CCN(C(=O)N[C@@H]2CCN(C(=O)c3ccc(C)nc3)C2)CC1` [Example 93, 4-(2-methoxyphenyl)-N-{(3R)-1-[(6-methylpyridin-3-yl)carbonyl]pyrrolidin-3-yl}piperazine-1-carboxamide], testing at 0.0001 µM gave an inhibition of 72%.

On to `Cc1ccc(C(=O)N2CC[C@@H](NC(=O)N3CCN(c4ccc([N+](=O)[O-])cc4)CC3)C2)cn1` [Example 96, N-{(3R)-1-[(6-methylpyridin-3-yl)carbonyl]pyrrolidin-3-yl}-4-(4-nitrophenyl)piperazine-1-carboxamide], for which the inhibition at 0.0001 µM turned out to be 75%.

Staying with this test, now noted: Homo sapiens; Inhibition of HMVEC migration; 1 nM; activators 15 ng/mL bFGF/VEGF; 4 hours at 37 °C; compared to a positive control.
Compound `CCC1CCCCN1C(=O)N[C@@H]1CCN(C(=O)c2ccc(C)nc2)C1` (stereo partly drawn) [Example 68, 2-ethyl-N-{(3R)-1-[(6-methylpyridin-3-yl)carbonyl]pyrrolidin-3-yl}piperidine-1-carboxamide] displayed an inhibition at 0.001 µM of 46%.

Compound `Cc1ccc(C(=O)N2CC[C@@H](NC(=O)N(C)CCc3ccccc3)C2)cn1` [Example 75, N-methyl-N'-{(3R)-1-[(6-methylpyridin-3-yl)carbonyl]pyrrolidin-3-yl}-N-(2-phenylethyl)urea] registered an inhibition at 0.001 µM of 76%.
